Experimental data taken from article PMC9940101, “Elucidation of the (R)-enantiospecific benzylisoquinoline alkaloid biosynthetic pathways in sacred lotus (Nelumbo nucifera)” (Scientific Reports, 2023).

Assays:
[1] = target: T1, NnOMT1 (Nelumbo nucifera, UniProt A0A3G1RSF0); test: substrate conversion by LC-MS/MS; assay type: biochemical; conditions: 100 µM substrate, 200 µM SAM, pH 7.5, 30 °C; 6-O-methylation
T1 construct: gene 6OMT

[2] = tested on: NnOMT7; test: LC-MS/MS product quantification, Michaelis-Menten fit; assay type: biochemical, Nelumbo nucifera; conditions: 400 µM SAM, 100 mM Tris-HCl pH 7.5, 30 °C, 5 min

T1 sequence (A0A3G1RSF0 entry or part of it): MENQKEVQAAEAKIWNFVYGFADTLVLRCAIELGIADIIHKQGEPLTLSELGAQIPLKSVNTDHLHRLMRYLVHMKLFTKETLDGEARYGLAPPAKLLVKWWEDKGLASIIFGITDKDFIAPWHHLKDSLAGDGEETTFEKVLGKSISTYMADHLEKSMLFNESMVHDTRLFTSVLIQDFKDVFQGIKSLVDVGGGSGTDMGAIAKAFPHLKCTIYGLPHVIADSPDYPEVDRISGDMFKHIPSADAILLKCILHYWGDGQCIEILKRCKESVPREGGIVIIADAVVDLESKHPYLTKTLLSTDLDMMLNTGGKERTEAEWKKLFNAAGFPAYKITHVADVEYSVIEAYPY

Row | Structure (SMILES) | substrate conversion by LC-MS/MS [1] | Km ([2]; 6-O-methylation) [µM] | Km ([2]; 7-O-methylation) [µM]
1 | Oc1ccc(CC2NCCc3cc(O)c(O)cc32)cc1 (racemic) [(R,S)-norcoclaurine] | NnOMT1 activity with racemic norcoclaurine was higher compared with (S)-norcoclaurine | 143 ± 30 | –
2 | COc1cc2c(cc1O)[C@H](Cc1ccc(O)cc1)N(C)CC2 [(S)-N-methylcoclaurine] | – | – | 48 ± 4
3 | Oc1ccc(C[C@@H]2NCCc3cc(O)c(O)cc32)cc1 [(S)-norcoclaurine] | NnOMT1 activity with racemic norcoclaurine was higher compared with (S)-norcoclaurine | – | –
